Laboratory results as given in patent US20160100579A1, “NEMATICIDAL N-(2-SUBSTITUTED 2-PHENYLETHYL)CARBOXAMIDES AND N-(2-SUBSTITUTED 2-PHENYLETHYL)-THIOCARBOXAMIDES” (priority 2013, published 2016).
Read-outs that look alike come from different tables or passages of the source.

How the values were obtained:
[1] = Measurement of log P values by HPLC on reversed phase columns (EEC directive 79/831 Annex V.A8; methods [a] pH 2.3, [b] pH 2.7, [c] pH 7.8); format: physicochemical
Cooperia curticei = format: in vivo; details: after 5 days, 100% = all larvae killed
Protocol: Cooperia curticei—Test (COOPCU)
(§1) Solvent: dimethyl sulfoxide
(§2) To produce a suitable preparation of active compound, 10 mg of active compound are dissolved in 0.5 ml solvent, and the concentrate is diluted with “Ringer's solution” to the desired concentration.
Approximately 40 nematode larvae (Cooperia curticei) are transferred into a test tube containing the compound solution.
After 5 days percentage of larval mortality is recorded. 100% efficacy means all larvae are killed; 0% efficacy means no larvae are killed.

Meloidogyne incognita = Meloidogyne incognita - test (MELGIN); format: in vivo; details: 20 ppm; salad seedlings in sand; after 14 days; 100% = no galls found
Protocol: Meloidogyne incognita—test (MELGIN)
Solvent: 125.0 parts by weight of acetone
To produce a suitable preparation of active compound, 1 part by weight of active compound is mixed with the stated amount of solvent, and the concentrate is diluted with water to the desired concentration.
Vessels are filled with sand, a solution of the active ingredient, a suspension containing eggs and larvae of the southern root-knot nematode (Meloidogyne incognita) and salad seeds. The salad seeds germinate and the seedlings grow. Galls develop in the roots.
After 14 days the nematicidal activity is determined on the basis of the percentage of gall formation. 100% means that no galls were found; 0% means the number of galls found on the roots of the treated plants was equal to that in untreated control plants.

Haemonchus contortus = Haemonchus contortus - Test (HAEMCO); format: in vivo; details: after 5 days, 100% = all larvae killed
Protocol: Haemonchus contortus—Test (HAEMCO)
as §1, §2
Approximately 40 larvae of the red stomach worm (Haemonchus contortus) are transferred into a test tube containing compound solution.
After 5 days percentage of larval mortality is recorded. 100% efficacy means all larvae are killed, 0% efficacy means no larvae are killed.

Boophilus microplus = Boophilus microplus - Injectiontest (BOOPMI Inj); format: in vivo; details: 20 μg/animal injected into adult engorged female ticks; after 7 days; 100% = all eggs infertile
Protocol: Boophilus microplus—Injectiontest (BOOPMI Inj)
as §1
To produce a suitable preparation of active compound, 10 mg of active compound are dissolved in 0.5 ml solvent, and the concentrate is diluted with solvent to the desired concentration.
Five adult engorged female ticks (Boophilus microplus) are injected with 1 μl compound solution into the abdomen. Ticks are transferred into replica plates and incubated in a climate chamber.
After 7 days the egg deposition of fertile eggs is monitored. Eggs where fertility is not visible are stored in a climate chamber till hatching after about 42 days. An efficacy of 100% means all eggs are infertile; 0% means all eggs are fertile.

[2] = method [b]: LC-MS, pH 2.7, 0.1% formic acid in water / acetonitrile
[3] = method [b]: LC-MS at pH 2.7, 0.1% formic acid in water / acetonitrile
[4] = method [c]: LC-MS at pH 7.8, 0.001 molar ammonium hydrogen carbonate in water / acetonitrile

Structure (SMILES) | logP [1, 2] | activity (efficacy: larval mortality) (Cooperia curticei; 20 ppm) | nematicidal activity (percentage of gall formation) (Meloidogyne incognita) | log P [1, 3] | log P [1, 4] | activity (efficacy: larval mortality) (Haemonchus contortus; 20 ppm) | logP ([1]; method [c]: LC-MS, pH 7.8, 0.001 molar ammonium hydrogen carbonate / acetonitrile) | activity (efficacy: larval mortality) (Cooperia curticei; 100 ppm) | activity (efficacy: larval mortality) (Haemonchus contortus; 100 ppm) | activity (efficacy: egg deposition of fertile eggs) (Boophilus microplus)
CCOC(c1ccc(Cl)cc1Cl)C(C)NC(=O)c1nccnc1C(F)(F)F (stereo not drawn) [Compound 107] | 4.16^[b] | 100% | 100% |  |  |  |  |  |  | 
COC(c1ccccc1Cl)C(C)NC(=O)c1nccnc1C(F)(F)F (stereo not drawn) [Compound 208] |  | 80% | 90% | 3.11^[b] | 3.10^[c]; |  |  |  |  | 
CCC(NC(=O)c1nccnc1C(F)(F)F)C(OC)c1ccc(Cl)cc1Cl (stereo not drawn) [Compound 92] | 3.99^[b] | 90% | 90% |  |  |  |  |  |  | 
COC(c1ccc(Cl)cc1Cl)C(C)NC(=O)c1nccnc1C(F)(F)F (stereo not drawn) [Compound 73] |  | 90% | 100% |  |  | 100% |  |  |  | 
COC(c1ccc(Cl)cc1)C(C)NC(=O)c1ccccc1C(F)(F)F (stereo not drawn) [Compound 128] |  | 80% |  | 3.45^[b] | 3.35^[c]; | 90% |  |  |  | 
COC(c1ccc(Cl)cc1)C(C)NC(=O)c1sccc1Br (stereo not drawn) [Compound 65] | 3.89^[b] |  |  |  |  |  | 3.83^[c]; | 80% | 100% | 
CCOC(c1ccc(Cl)cc1Cl)C(C)NC(=O)c1ccccc1[N+](=O)[O-] (stereo not drawn) [Compound 202] |  | 100% | 90% | 3.83^[b] | 3.80^[c]; | 80% |  |  |  | 
COC(CNC(=O)c1nccnc1C(F)(F)F)c1ccc(Cl)cc1Cl (stereo not drawn) [Compound 103] | 3.35^[b] | 90% | 90% |  |  |  |  |  |  | 80%
